Measurements published in patent publication EP0269947B2, “Antiviral phosphonomethoxyalkylene purine and pyrimidine derivatives” (priority 1986, dated 1988).

Legend:
Design in all cases: unit not given here
[1] = system: Murine leukemia virus (MuLV); test: UV-XC plaque assay against murine retroviruses; type: cell-based; conditions: MuLV in SC-1 cells
Description: The compounds wore evaluated for antiviral activity against Murine leukemia virus (MuLV) strains using the UV-XC plaque assay (Rowe, et al., "Virology," 42:1136, 1970).
The MuLV strains were grown in feral mouse cells (SC-1) and used for antiviral tests using the UV-XC plaque assay. Briefly, SC-1 coils are grown as monolayers in 4-well tissue culture plates and inoculated with approximately 50-100 plaque forming units of MuLV in 0.5 ml of 5% EMEM containing 20 ug/ml DEAE/Dextran. After 1 hr. adsorbtion, the inoculum is removed and 5 ml of 5% EMEM containing three-fold dilutions of the appropriate drug are added. Five days later, the cultures are UV-irradiated with an ultraviolet lamp and rat XC sarcoma cells are added to the cultures. Three-four days after UV-irradiation, the cell cultures are stained with Giemsa stain and the plaques are enumerated. Antiviral activity is expressed in terms of the reduction in the mean number of UV-XC plaques counted in the drug treated, virus-infected cultures compared with mean number of plaques counted in untreated, virus-infected control cultures. The ID50 for each drug was determined.

[2] = system: Human cytomegalovirus (HCMV) strain (AD169); test: Plaque reduction assay against human cytomegalovirus; type: cell-based; conditions: HCMV strain AD169 in MRC-5 cells
Description: (§1) The titer of HSV strains is determined by a plaque titration method (Roizman and Roane,"Virology," 15:75-79, 1961). Tissue culture 24-well petri dishes are seeded with cells and used for assays when approximately 75% monolayer. Volumes (0.1ml) of logarithmic dilutions of the virus strain are inoculated onto each of triplicate wells, and absorbed for one hour with intermittent shaking. The inoculum thereafter is removed, and 1 ml of 5-10% EMEM containing 0.3% human immune serum globulin is added. After a 48 hr. incubation period at 37°C in a 5% CO2 atmosphere, the overlay medium is removed and the cell sheets stained with Giemsa stain. The number of plaques is counted, the triplicate is averaged, and the number of plaque-forming units per ml is calculated.
(§2) The compounds are tested for activity against the herpes simplex strains using a stock solution of each compound freshly prepared. Appropriate dilution of each compound are made in 10% EMEM before usage. The antiviral efficacy of each compound is determined using the plaque reduction assay described above. Briefly, tissue culture 24-well plates, with approximately 75% cell monolayer are inoculated with approximately 50 plaque forming units of HSV per 0.1 ml, and the virus adsorbed for 1 hr, with intermittent shaking. After removal of the inoculum, 1 ml of 10% EMEM containing two-fold dilutions of the appropriate drug are added in triplicates. Triplicate wells/plate receives no drug and are used as a virus control. After a 48-hour incubation period, at 37°C in a 5% CO2 atmosphere, the overlay medium is removed, the cells stained as described above, and plaques are counted. The counts of triplicate wells are averaged, and the number of plaques in the presence of each drug dilution are calculated.
(§3) The antiviral potency of the drug is determined by ID50, the drug concentration necessary to reduce the number of plaques by 50% of those in the virus control cultures.
Human cytomegalovirus (HCMV) strain (AD169) was grown and titered at 37° in human embryonic lung (diploid) cells, MRC-5, and used for the antiviral assay.
The compounds are tested for activity against the HCMV using the procedure for the plaque reduction assay described above.

[3] = system: HSV-2; test: Plaque reduction assay, herpes simplex virus type 2; type: cell-based, Herpes simplex virus (HSV); conditions: vero cells, 48-hour incubation; concentration reducing number of plaques by 50%
Description: (§4) Herpes simplex virus (HSV) strains wars grown and titered at 37°C in vero cells (African Green Monkey Kidney cells) and used for virus work before the tenth passage.
(§5) Cells were grown and maintained in Earle's Minimum Essential Medium (EMEM), Gibco Laboratories, supplemented with 0.75% sodium bicarbonate, 2mM 1-glutamine, Pen-strep. and 5-10% fetal calf serum.
as §1, §2, §3

[4] = system: HSV-1; test: Plaque reduction assay, herpes simplex virus type 1; type: cell-based, Herpes simplex virus (HSV); conditions: vero cells, 48-hour incubation; concentration reducing number of plaques by 50%
Description: as §4, §5, §1, §2, §3

[5] = system: HSV-2; test: Colorimetric dye-uptake assay (neutral red), herpes simplex virus type 2; type: cell-based, Herpes simplex virus (HSV); conditions: vero cells, 48 hr incubation, neutral red stain; ID50 by linear regression
Description: as §4, §5
(§6) For the primary screening, a colorimetric dye-uptake assay (McLaren, C., et al., "Antiviral Research," 3:323, 1983) is used employing rapidly growing vero cells. Briefly, cells, compound and virus dilutions are added onto 96-well tissue culture plates simultaneously using the cells, viruses and medium described above. After 48 hr. incubation at 37°C in 5% CO2 atmosphere, the overlay medium is removed and the cell sheets are stained with 0.04% neutral red solution. After 30 min. incubation at 37°C, the cell sheets are washed and the stain is eluted with 0.05 M sodium monophosphate in 47% ethanol and the O.D. is determined at 540 nm wave length.
(§7) The 50% inhibitory dose (ID50) for each drug is determined by linear regression analysis.

[6] = system: HSV-1; test: Colorimetric dye-uptake assay (neutral red), herpes simplex virus type 1; type: cell-based, Herpes simplex virus (HSV); conditions: vero cells, 48 hr incubation, neutral red stain; ID50 by linear regression
Description: as §4, §5, §6, §7

Compound: Cc1cn([C@H]2C[C@H](N=[N+]=[N-])[C@@H](CO)O2)c(=O)[nH]c1=O [3'-Azido-3'-deoxythymidine, reference compound]
- Muly ID50 [1]: 0.0001

Compound: Nc1nc2c(ncn2COC(CO)CO)c(=O)[nH]1 [9-(1,3-Dihydroxypropoxymethyl)guanine, reference compound]
- CMV ID50 [2]: 1.2

Compound: Nc1ncnc2c1ncn2C[C@@H](CO)OCP(=O)(O)O [(S)-9-(3-Hydroxy-2-phosphonomethoxy)propyl adenine, reference compound]
- Muly ID50 [1]: 2.0
- CMV ID50 [2]: 0.13
- Plaque Reduction HSV-2 ID50 [3]: 35.8
- Plaque Reduction HSV-1 ID50 [4]: 13.8
- Dye-Uptake HSV-2 ID50 [5]: > 25
- Dye-Uptake HSV-1 ID50 [6]: 15.1

Compound: Nc1nc2c(ncn2COCCO)c(=O)[nH]1 [Acyclovir, reference compound]
- Plaque Reduction HSV-2 ID50 [3]: 1.5
- Plaque Reduction HSV-1 ID50 [4]: 0.3
- Dye-Uptake HSV-2 ID50 [5]: 1.0
- Dye-Uptake HSV-1 ID50 [6]: 0.5

Compound: CCOP(=O)(O)COCCn1cnc2c(=O)[nH]c(N)nc21 [Ex. 7, 9-(2-(Monoethylphosphonomethoxy)ethyl)guanine]
- Muly ID50 [1]: 0.56
- CMV ID50 [2]: 0.23
- Plaque Reduction HSV-2 ID50 [3]: 5.1
- Plaque Reduction HSV-1 ID50 [4]: 4.8
- Dye-Uptake HSV-2 ID50 [5]: 8
- Dye-Uptake HSV-1 ID50 [6]: 12

Compound: CC(COCP(=O)(O)O)n1cnc2c(=O)[nH]c(N)nc21 (centres unmarked) [Ex. 13]
- Plaque Reduction HSV-2 ID50 [3]: 3.3
- Plaque Reduction HSV-1 ID50 [4]: 3.0
- Dye-Uptake HSV-2 ID50 [5]: 10.4
- Dye-Uptake HSV-1 ID50 [6]: 8.7

Compound: Nc1nc2c(ncn2CCCOCP(=O)(O)O)c(=O)[nH]1 [Ex. 18]
- Muly ID50 [1]: 0.04
- CMV ID50 [2]: 6.0

Compound: Nc1ncc2ncn(CCOCP(=O)(O)O)c2n1 [Ex. 25]
- CMV ID50 [2]: <0.032

Compound: COP(=O)(O)COCCn1cnc2c(=O)[nH]c(N)nc21 [Ex. 32]
- Muly ID50 [1]: 0.05
- Plaque Reduction HSV-2 ID50 [3]: 1.2
- Plaque Reduction HSV-1 ID50 [4]: 1.6
- Dye-Uptake HSV-2 ID50 [5]: 3.8
- Dye-Uptake HSV-1 ID50 [6]: 1.5

Compound: CCCOP(=O)(O)COCCn1cnc2c(=O)[nH]c(N)nc21 [Ex. 33]
- Plaque Reduction HSV-2 ID50 [3]: 9.9
- Plaque Reduction HSV-1 ID50 [4]: 9.7

Compound: CC(C)OP(=O)(O)COCCn1cnc2c(=O)[nH]c(N)nc21 [Ex. 34]
- Muly ID50 [1]: 1.72
- Plaque Reduction HSV-2 ID50 [3]: 34.8
- Plaque Reduction HSV-1 ID50 [4]: 74.9
